By EC50 is commonly meant the concentration that produces a half-maximal response.

In the assay the target is T1, human recombinant OX2 (hOX2) receptor expressed in CHO cells (Homo sapiens, UniProt O43614).
T1 construct: host or cells: CHO cells (hOX2-CHO)
T1 sequence (O43614 1-444): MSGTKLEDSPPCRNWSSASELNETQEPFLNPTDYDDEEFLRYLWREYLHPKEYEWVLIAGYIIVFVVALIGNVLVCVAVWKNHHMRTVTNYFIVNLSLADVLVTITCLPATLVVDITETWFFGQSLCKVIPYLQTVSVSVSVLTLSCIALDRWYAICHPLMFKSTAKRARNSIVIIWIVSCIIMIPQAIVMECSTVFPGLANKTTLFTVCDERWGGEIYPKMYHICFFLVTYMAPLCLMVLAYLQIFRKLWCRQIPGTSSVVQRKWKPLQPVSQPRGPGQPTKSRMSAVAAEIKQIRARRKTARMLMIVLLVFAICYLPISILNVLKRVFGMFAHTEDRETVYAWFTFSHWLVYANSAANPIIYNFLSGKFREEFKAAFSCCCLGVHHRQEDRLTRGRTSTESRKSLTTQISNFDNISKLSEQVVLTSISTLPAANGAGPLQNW
Put plainly: IP-1 accumulation assay (IP-One HTRF) in hOX2-CHO cells. In kind it is cell-based. To be noted: 60 min at 37° C., 11 points CRC, response as % of maximal OX-A response. On the procedure: The accumulation of Inositol-1 Monophosphate (IP-1) was measured using IP-One HTRF® Terbium cryptate based assay (Cisbio) in human recombinant OX1 (hOX1) and at OX2 (hOX2) receptors expressed in CHO cells (DiscoverX) according to the manufacturer's instructions for cells tested in suspension.
hOX1-CHO and hOX2-CHO cells were seeded into white 384-well plates at a density of 20,000 cells/well in Hank's Balanced Salt Solution (HBSS) containing 20 mM HEPES pH 7.4, 50 mM, LiCl and 0.1% and Bovine Serum Albumin (BSA).
Compounds of the present disclosure were tested in a 11 points concentration response curve (CRC) serially diluted in neat DMSO at 200 fold concentrations and added by Echo acoustic liquid handling (Labcyte) to the cells (0.5% DMSO final in the assay). After 60 min of incubation at 37° C. detection reagents, IP1-d2 tracer and anti-IP1-cryptate were diluted in lysis buffer according to the manufacturer's descriptions and added to the cells.
Following 60 min incubation at room temperature, time-resolved fluorescence (HTRF) was measured at 615 nm and 665 nm by Envision Multilabel reader (Perkin Elmer) and the HTRF ratio (A665/A615x104) was calculated.
The IP-1 accumulation response was expressed as percentage of the maximal OX-A response.
Curve fitting and EC50 estimations were carried out using a four-parameter logistic model using XLfit Software. Mean data of EC50 are calculated from at least two independent experiments performed in duplicates.
In the Tables, below Category A corresponds to compounds displaying an […]<100 nM, Category B between 100 nM and 1,000 nM, Category C between 1,000 nM and 10,000 nM and Category D above 10,000 nM.
A general note: In TR-FRET formats the signal depends on donor and acceptor labels being close together.
With `Cc1ccn(C(CNS(C)(=O)=O)CO[C@H]2CC[C@@H](c3ccccc3)CC2)n1` (single isomer, unassigned; isomer 2) [Example 2ac, (S or R) N-[2-(3-methyl-1H-pyrazol-1-yl)-3-{[(CIS)-4-phenylcyclohexyl]oxy}propyl]methanesulfonamide-Isomer 2], the EC50 is > 10000 nM.
Consider `Cc1cccn(C(CO[C@H]2CC[C@@H](c3ccccc3)CC2)C(C)NS(C)(=O)=O)c1=O` (single isomer, unassigned; isomer 4) [Example 3d, (2R or 2S) and (3S or 3R) N-[3-(3-methyl-2-oxo-1,2-dihydropyridin-1-yl)-4-{[(CIS)-4-phenylcyclohexyl]oxy}butan-2-yl]methanesulfonamide—Isomer 4], for which the EC50 was in the range of 1000 to 10000 nM.
For `Cc1cc(-n2cccn2)cn(C(CNS(C)(=O)=O)CO[C@H]2CC[C@@H](c3ccccc3)CC2)c1=O` (stereo partly drawn) [Example 7a, N-{2-[3-methyl-2-oxo-5-(1H-pyrazol-1-yl)-1,2-dihydropyridin-1-yl]-3-{[(CIS)-4-phenylcyclohexyl]oxy}propyl}methanesulfonamide], the EC50 lay in the range of 100 to 1000 nM.
With `CS(=O)(=O)NCC(CO[C@H]1CC[C@@H](c2ccccc2)CC1)n1ccc(C#N)cc1=O` (stereo partly drawn) [Example 2y, N-[2-(4-cyano-2-oxo-1,2-dihydropyridin-1-yl)-3-{[(CIS)-4-phenylcyclohexyl]oxy}propyl]methanesulfonamide], the EC50 is > 10000 nM.
Turning to `Cc1cc(C)c(=O)n(C(CNS(C)(=O)=O)COC2CCN(c3ncc(F)cn3)CC2)c1` (single isomer, unassigned; isomer 1) [Example 2az, (R or S) N-[2-(3,5-dimethyl-2-oxo-1,2-dihydropyridin-1-yl)-3-{[1-(5-fluoropyrimidin-2-yl)piperidin-4-yl]oxy}propyl]methanesulfonamide-Isomer 1], the EC50 was 1000 to 10000 nM.
For `Cc1cccn(C(CO[C@H]2CC[C@@H](c3ccccc3)CC2)C(C)NS(C)(=O)=O)c1=O` (single isomer, unassigned; isomer 1) [Example 3a, (2R or 2S) and (3R or 3S) N-[3-(3-methyl-2-oxo-1,2-dihydropyridin-1-yl)-4-{[(CIS)-4-phenylcyclohexyl]oxy}butan-2-yl]methanesulfonamide—Isomer 1], the EC50 was 1000 to 10000 nM.
Regarding `Cc1cc(C)c(=O)n(C(CNS(C)(=O)=O)CO[C@H]2CC[C@@H](c3ccccc3)CC2)c1` (stereo partly drawn) [Example 2s, N-[2-(3,5-dimethyl-2-oxo-1,2-dihydropyridin-1-yl)-3-{[(CIS)-4-phenylcyclohexyl]oxy}propyl]methanesulfonamide], the concentration giving a half-maximal response (EC50) is < 100 nM.
Regarding `Cc1cc(C)c(=O)n(C(CNS(=O)(=O)CF)CO[C@H]2CC[C@@H](c3cccc(F)c3)CC2)c1` (single isomer, unassigned; isomer 2) [Example 2av, (S or R) N-[2-(3,5-dimethyl-2-oxo-1,2-dihydropyridin-1-yl)-3-{[(CIS)-4-(3-fluorophenyl)cyclohexyl]oxy}propyl]-1-fluoromethanesulfonamide-Isomer 2], the EC50 fell in the range of 100 to 1000 nM.
In the case of `Cc1ccn(C(CNS(C)(=O)=O)CO[C@H]2CC[C@@H](c3ccccc3)CC2)c(=O)c1C` (single isomer, unassigned; isomer 1) [Example 2n, (R or S) N-[2-(3,4-dimethyl-2-oxo-1,2-dihydropyridin-1-yl)-3-{[(CIS)-4-phenylcyclohexyl]oxy}propyl]methanesulfonamide-Isomer 1] it was 100 to 1000 nM; in that of `Cc1ccn(C(CNS(C)(=O)=O)CO[C@H]2CC[C@@H](c3ccccc3)CC2)n1` (stereo partly drawn) [Example 2aa, N-[2-(3-methyl-1H-pyrazol-1-yl)-3-{[(CIS)-4-phenylcyclohexyl]oxy}propyl]methanesulfonamide], > 10000 nM.
The value for `Cc1cc(C)c(=O)n(C(CNS(C)(=O)=O)CO[C@H]2CC[C@@H](c3ccccc3)CC2)c1` (single isomer, unassigned; isomer 2) [Example 2u, (S or R) N-[2-(3,5-dimethyl-2-oxo-1,2-dihydropyridin-1-yl)-3-{[(CIS)-4-phenylcyclohexyl]oxy}propyl]methanesulfonamide-Isomer 2] was 1000 to 10000 nM; that for `Cc1cc(Cl)cn(C(CNS(C)(=O)=O)CO[C@H]2CC[C@@H](c3cccc(F)c3)CC2)c1=O` (single isomer, unassigned; isomer 1) [Example 2ah, (R or S) N-[2-(5-chloro-3-methyl-2-oxo-1,2-dihydropyridin-1-yl)-3-{[(CIS)-4-(3-fluorophenyl)cyclohexyl]oxy}propyl]methanesulfonamide-Isomer 1] was < 100 nM; that for `Cc1cc(C(CNS(C)(=O)=O)CO[C@H]2CC[C@@H](c3cccc(F)c3)CC2)c(=O)n(C(F)F)c1` (stereo partly drawn) [Example 5x, N-{2-[1-(difluoromethyl)-5-methyl-2-oxo-1,2-dihydropyridin-3-yl]-3-{[(CIS)-4-(3-fluorophenyl)cyclohexyl]oxy}propyl}methanesulfonamide] was < 100 nM.
With `CN(C)S(=O)(=O)NCC(CO[C@H]1CC[C@@H](c2ccccc2)CC1)n1ccccc1=O` (relative stereo) [Example 1f, 1-{1-[(Dimethylsulfamoyl)amino]-3-{[(CIS)-4-phenylcyclohexyl]oxy}propan-2-yl}-1,2-dihydropyridin-2-one], the EC50 is 1000 to 10000 nM.
In the case of `Cc1cc(Cl)cn(C(CNS(C)(=O)=O)CO[C@H]2CC[C@@H](c3cccc(F)c3)CC2)c1=O` (single isomer, unassigned; isomer 2) [Example 2ai, (S or R) N-[2-(5-chloro-3-methyl-2-oxo-1,2-dihydropyridin-1-yl)-3-{[(CIS)-4-(3-fluorophenyl)cyclohexyl]oxy}propyl]methanesulfonamide-Isomer 2] it was 1000 to 10000 nM; in that of `Cc1cncn(C(CNS(C)(=O)=O)CO[C@H]2CC[C@@H](c3ccccc3)CC2)c1=O` (stereo partly drawn) [Example 2aj, N-[2-(5-methyl-6-oxo-1,6-dihydropyrimidin-1-yl)-3-{[(CIS)-4-phenylcyclohexyl]oxy}propyl]methanesulfonamide], > 10000 nM.
Consider `Cc1cc(Br)cn(C(CNS(C)(=O)=O)CO[C@H]2CC[C@@H](c3ccccc3)CC2)c1=O` (stereo partly drawn) [Example 2x, N-[2-(5-bromo-3-methyl-2-oxo-1,2-dihydropyridin-1-yl)-3-{[(CIS)-4-phenylcyclohexyl]oxy}propyl]methanesulfonamide], for which the EC50 lay in the range of 100 to 1000 nM.
`Cc1cc(C(CNS(=O)(=O)N(C)C)CO[C@H]2CC[C@@H](c3cccc(F)c3)CC2)c(=O)n(C(F)F)c1` (stereo partly drawn) [Example 5aa, 1-(difluoromethyl)-3-{1-[(dimethylsulfamoyl)amino]-3-{[(CIS)-4-(3-fluorophenyl)cyclohexyl]oxy}propan-2-yl}-5-methyl-1,2-dihydropyridin-2-one]: the EC50 is < 100 nM.
For the compound `CS(=O)(=O)NCC(CO[C@H]1CC[C@@H](c2ccccc2)CC1)n1ccccc1=O` (stereo partly drawn) [Example 1, N-[2-(2-oxo-1,2-dihydropyridin-1-yl)-3-{[(CIS)-4-phenylcyclohexyl]oxy}propyl]methanesulfonamide], the EC50 was 1000 to 10000 nM.
For `Cc1cc(C(CNS(C)(=O)=O)CO[C@H]2CC[C@@H](c3cccc(F)c3)CC2)c(=O)n(C2CC2)c1` (stereo partly drawn) [Example 5v, N-[2-(1-cyclopropyl-5-methyl-2-oxo-1,2-dihydropyridin-3-yl)-3-{[(CIS)-4-(3-fluorophenyl)cyclohexyl]oxy}propyl]methanesulfonamide], the EC50 is < 100 nM.
As for `Cn1cccc(C(CNS(C)(=O)=O)CO[C@H]2CC[C@@H](c3ccccc3)CC2)c1=O` (stereo partly drawn) [Example 4, N-[2-(1-methyl-2-oxo-1,2-dihydropyridin-3-yl)-3-{[(CIS)-4-phenylcyclohexyl]oxy}propyl]methanesulfonamide], the EC50 was in the range of 1000 to 10000 nM.
For the compound `Cc1cc(C(CNS(=O)(=O)N(C)C)CO[C@H]2CC[C@@H](c3cccc(F)c3)CC2)c(=O)n(C)c1` (single isomer, unassigned; isomer 1) [Example 5r, (R or S) 3-[1-[(dimethylsulfamoyl)amino]-3-{[(CIS)-4-(3-fluorophenyl)cyclohexyl]oxy}propan-2-yl]-1,5-dimethyl-1,2-dihydropyridin-2-one—Isomer 1], the EC50 is < 100 nM.
`Cc1cc(C)nc(C(CNS(C)(=O)=O)CO[C@H]2CC[C@@H](c3ccccc3)CC2)c1` (stereo partly drawn) [Example 5i, N-[2-(4,6-dimethylpyridin-2-yl)-3-{[(CIS)-4-phenylcyclohexyl]oxy}propyl]methanesulfonamide]: the EC50 lay within 1000 to 10000 nM.

The values are drawn from US20240360081A1, “SULFONAMIDE OREXIN RECEPTOR AGONISTS AND USES THEREOF” (Jazz Pharmaceuticals Ireland Limited, priority 2021, published 2024).
